Test results from patent publication EP0219838A2, “Carbocyclic purine nucleosides, their production and use” (Takeda Chemical Industries, Ltd., priority 1985, dated 1987).
≈ marks a conversion by molar mass, not a printed value. Where two headings read alike, the source gives them in different places.

What was measured:
Type in all cases: cell-based
[1] = test system: Herpes Simplex Virus Type 1, HF Strain; test: Inhibitory effect against herpes simplex virus (reduction of viral cytopathogenic effect) in Vero cells
Description: (§1) Vero cells were infected with 100 TCID₅₀ (50% tissue-culture infected doses) of viruses and cultured with various concentrations of the compounds.

[2] = Cytotoxicity in non-infected control culture (Vero cells); settings: monkey
Description: as §1

[3] = test system: Adenovirus, Type 3; test: Antiadenovirus activity (reduction of viral cytopathogenic effect) in FL cells; settings: Human mastadenovirus B, 192 h; 50% inhibitory dose; FL cells infected with 100 TCID50; observed eight days after the infection; read-out: ID50 (the source's name)
Description: FL cells were infected with 100 TCID₅₀ (50% tissueculture infected doses) of viruses and cultured with various concentrations of the compouns.

[4] = Cytotoxicity in non-infected control culture (FL cells); settings: human, non-infected FL cell control culture, eight days
[5] = Human alphaherpesvirus 1, 72 h, concentration required to reduce the viral cytopathogenic effect by 50%, Vero cells infected with 100 TCID50, observed three days after the infection, read-out: ID50 (the source's name)
[6] = Human alphaherpesvirus 1, Vero, 72 h, read-out: ID50

Row | Structure (SMILES) | IC50 [1, 5] [µg/mL] | IC50 [3] [µg/mL] | MCC at 72 h ([2]; vero cells) [µg/mL] | MCC at 192 h [4] [µg/mL] | IC50 [1, 6] [µg/mL] | MCC at 72 h ([2]; minimum concentration to cause a visible disruption of normal cell morphology, non-infected Vero cells, three days, read-out: Cytotoxicity) [µg/mL]
1 | Nc1ncnc2c1ncn2[C@@H]1O[C@H](CO)[C@@H](O)[C@@H]1O [Ara-A] |  |  | 100 |  | 12.5 (≈ 46.8 µM) | 
2 | Nc1ccn([C@@H]2O[C@H](CO)[C@@H](O)[C@@H]2O)c(=O)n1 [Ara-C] |  |  |  |  | 0.39 (≈ 1.6 µM) | 0.78
3 | O=c1[nH]c(=O)n([C@H]2C[C@H](O)[C@@H](CO)O2)cc1Br [BUDR] | 25 (≈ 81.4 µM) |  | 100 |  |  | 
4 | O=c1[nH]c(=O)n([C@H]2C[C@H](O)[C@@H](CO)O2)cc1I [IUDR] | 50 (≈ 141 µM) |  | 200 |  |  | 

Continued, in another order:

Row | IC50 [1, 5] [µg/mL] | IC50 [3] [µg/mL] | Structure (SMILES) | MCC at 72 h ([2]; vero cells) [µg/mL] | MCC at 192 h [4] [µg/mL] | IC50 [1, 6] [µg/mL] | MCC at 72 h ([2]; minimum concentration to cause a visible disruption of normal cell morphology, non-infected Vero cells, three days, read-out: Cytotoxicity) [µg/mL]
5 | 0.049 (≈ 0.185 µM) | 0.39 (≈ 1.47 µM) | Nc1nc2c(ncn2[C@@H]2C[C@H](CO)[C@H](O)C2)c(=O)[nH]1 [9-[(1R, 3R, 4R)-4-hydroxymethyl-3-hydroxycyclopentan-1-yl]guanine] | 12.5 | 3.13 |  | 
6 | 3.13 (≈ 13.9 µM) | 200 (≈ 888 µM) | Nc1nc2c(ncn2COCCO)c(=O)[nH]1 [Acyclovir] | 800 | 400 |  | 
